Results published in US11602540B2, “Method for stimulating blood flow in a penile region of a patient” (BMR MEDICAL LLC, priority 2016, dated 2023).

Assay: treatment of diffuse plaque by carbon dioxide injection into affected corpus tissues
Format: in vivo, patient
Settings: injection directly into affected corpus tissues
Source text: In addition to the above treatment method embodiments, Applicants have discovered that injection(s) of carbon dioxide is/are also effective to treat a condition related to Peyronie's disease known as “diffuse plaque” comprising plaque that has not assimilated into any hardened singular construct within the penis, but remains in a “diffuse” state throughout. The preferred treatment method is injection(s) of carbon dioxide directly into the affected corpus tissues to treat the diffuse plaque. This form of carbon dioxide injection treatment may be continued until the diffuse plaque has been sufficiently mitigated or eliminated. Preferably, if more than one carbon dioxide injection is required, then the second injection location is optimally spaced away from the location of the first carbon dioxide injection. As above, the “dose” of each carbon dioxide injection(s) is considered to be “therapeutically effective” which is defined as described above in conjunction with “carboxy therapy”.
FIG. 10 illustrates one method 900 for treating diffuse plaque using the above-described method steps. Thus, the “diffuse plaque” condition is identified or diagnosed within at least one corpus cavernosa at 902. […] After the initial round of administration/injection(s) of carbon dioxide is complete, the results may be assessed to see if the plaque is mitigated at 908. […]

## O=C=O [carbon dioxide]
  effectiveness in treating diffuse plaque: effective
